We go through three compounds from US20060051835A1, “Pael receptor, cells and animal expressing pael receptor and method of screning remedy for parkinson's disease” (priority 2001, published 2006).

Data set [1] deals with Pael receptor. Nature of the data set: Western blotting of 1% Triton X-100-soluble and -insoluble fractions of Pael receptor-transfected SH-SY5Y cells. Format: cell-based, human. As to conditions: 16 hours, lactacystin 10 μM, tunicamycin 1 μg/ml, 2-ME 1 mM; for Pael receptors in the insoluble fraction: 1% Triton X-100-insoluble fraction; for expression of BiP (GRP78) and of endogenous Parkin in the soluble fraction: cells over-expressing Pael receptors. The method, then: Cells were suspended in a cytolysis buffer (consisting of 20 mM HEPES, pH 7.4, 120 mM NaCl, 5 mM EDTA, 10% glycerol, 1% Triton X-100 and Complete Protease Inhibitors [Roche Diagnostics]) and then lysed at 4° C. for 30 minutes. The forebrain cortex of the human cerebrum was suspended in a cytolysis buffer, and then crushed using a downs homogenizer. The sample was fractionated into surfactant-soluble and insoluble fractions, and then immuno-precipitated according to a modified method of Ward et al. (1995) Cell 83, 121-127. Specifically, the suspension was fractionated by centrifugation at 15,000×g for 30 minutes. The supernatant derived from 1% Triton X-100 soluble fraction was directly subjected to immunoprecipitation. The insoluble pellet fraction was washed 4 times in an ice-cooled cytolysis buffer. Subsequently, the fraction was subjected to lysis at 60° C. for 1 hour in a cytolysis buffer supplemented with sodium lauryl sulfate (SDS) with a final concentration of 1%. A cytolysis buffer containing 10 mM MgCl2 and 25 μg/ml DNase I and having a volume 10 times greater than that of the solution was added. The solution was allowed to react at 37° C. for 10 minutes. After centrifugation at 15,000×g for 30 minutes, the supernatant derived from 1% Triton X-100 insoluble fraction was subjected to immunoprecipitation using various antibodies and protein G-coupled or protein A/G (50/50%)-coupled Sepharose beads (Amersham-Pharmacia). The immunoprecipitate was washed 4 times in a cytolysis buffer containing no complete protease inhibitors. 1% Triton X-100-soluble and -insoluble fractions of total cell extract, or immunoprecipitates derived from the 1% Triton X-100-soluble fraction and -insoluble fraction were subjected to Western blot analysis using ECL detection reagent (Amersham-Pharmacia). Proteins were quantified using Coomassie protein assay reagent (Pierce).
Vectors (−) having no gene inserted therein or expression plasmids (+) for Pael receptors were gene-transferred to SH-SY5Y cells, and then the cells were cultured for 20 hours. Next, in the presence or the absence of lactacystin (10 μM) and in the presence of tunicamycin (1 μg/ml) or 2-mercaptoethanol (2-ME; 1 mM), the cells were cultured for 16 hours. The cells were lysed in a buffer containing 1% Triton X-100, and then fractionated by the method described in Ward et al., 1995 Cell 83, 121-127. Insoluble Pael receptors were immunoprecipitated as described above from the insoluble fraction of the same sample, and then analyzed using anti-Ub polyclonal antibodies (FIG. 10). 1% Triton-X100-insoluble or -soluble fraction was obtained under various conditions, including cases wherein Pael receptor cDNA had not been transfected (−) or transfected (+) to SH-SY5Y cells, and then subjected to Western blotting. Even in an untreated state, Pael receptors were already present in the insoluble fraction at a level equivalent to that of the soluble fraction.
(In general: In western blotting, separated proteins are transferred to a membrane and probed.)

In data set [2] the test system is SH-SY5Y cells. Nature of the data set: Cell death assay in SH-SY5Y cells with or without Pael receptor overexpression. In kind it is cell-based. An excerpt:
Descriptions concerning expression plasmids for Parkin, Parkin variants, UBCH6, UBCH7 and Ubiquitin are as described in Imai, Y. et al. (2000) J Biol Chem 275, 35661-35664. The full-length complementary strand DNAs (cDNAs) of human and mouse Pael receptors, human ETBR-LP-2, human UBC6, UBC7 and E2-25K were obtained by reverse transcription (RT)-PCR. The full-length cDNA of ETA-R and that of ETB-R were obtained from the RIKEN Gene Bank. Recombinant GST-Parkin, GST-A Ex 4, 6×His tagged UBC6 and UBC7 were produced in the Escherichia coli BL21 strain (DE3) pLysS (Novagen). Site-directed mutagenesis to the active center cysteine of UBC6 and UBC7 was performed by the PCR method. UBC6 of a putative membrane insertion site-deficient type (UBC6ΔC; 1 to 288 amino residues) is expressed better than wild type UBC6 in Escherichia coli and has high enzyme activity, so that UBC6ΔC was subjected to in vitro ubiquitination assay. Anti-Myc (9E10), anti-HA (Y-11), anti-Ubiquitin (FL-76), anti-BiP (N-20) and anti-actin (C-2) antibodies were purchased from Santa Cruz Biotech. Anti-FLAG (M2), anti-HA (3F10), anti-Ubiquitin (1B3), anti-GluR4 (AB1508) and anti-NSE (BBS/NC/VI-H14) were purchased from Sigma, Roche Diagnostics, MBL (Nagoya, Japan), Chemicon and Dako, respectively. Anti-UCH-L1 antibodies were provided by Dr. Keiji WADA (National Center of Neurology and Psychiatry, Japan). 293T cells derived from a human fetal kidney and SH-SY5Y cells derived from neuroblastoma were subjected to gene transfer, immunoprecipitation, Western blot, immunocytochemistry and cell death assay according to the method as described in Imai et al., 2000.
To confirm this prediction, the effect of a proteasome inhibitor and that of a UPR inducer on cell death resulting from the overexpression of Pael receptors were examined (FIG. 11). Vectors (−) having no gene inserted therein or expression plasmids for Pael receptors (+) were gene-transferred with expression plasmids for enhanced green fluorescent proteins (EGFP) to SH-SY5Y cells. The cells were then cultured in the presence (Lc, 20 μM) or the absence (non) of lactacysin, and the presence of tunicamycin (Tm, 5 μg/ml) or 2-ME (2 mM) for 16 hours. Cell death was counted by the method described in Imai, Y. et al. (2000) J Biol Chem 275, 35661-35664. In FIG. 11, the line of error indicates the standard deviation (S.D.) calculated from three experiments.

In data set [3] the test system is Pael receptor. Nature of the data set: Immunocytochemistry, intracellular distribution of over-expressed Pael receptors in SH-SY5Y cells. As to conditions: SH-SY5Y cells transfected with Pael receptor plasmids, treated for 6 hours. Format: cell-based, human. Here is the method: For immunocytochemistry, a human Pael receptor expression vector (1 μg per sample) was gene-transferred, or was gene-transferred in combination with 0.3 μg of red fluorescent protein expression vector (pDsRed1-N1, Clontech) having endoplasmic reticulum localization sequence of calreticulin or Golgi body localization sequence of human β1, 4-galactosyltransferase into SH-SY5Y cells inoculated on a 8-well chamber slide. After 20 hours of culturing, the cells were exposed to 20 μM lactacystin for 16 hours. After washed in phosphate buffered saline, the cells were fixed with 0.2% glutaraldehyde and 2% formaldehyde. Subsequently, the cells were stained with anti-human Pael receptor antibodies or anti-BiP antibodies. For immunohistochemistry, the carboxyl terminal site (541 to 600 amino residues) of mouse Pael receptor was expressed as a GST fusion protein in Escherichia coli. The anti-Pael receptor polyclonal antibody was prepared against a recombinant protein from which the GST portion had been removed. 14 μm-thick frozen sections of the mouse C57BL/6 brain tissue were allowed to react with anti-Pael receptor antibodies (1:200 dilution), anti-TH antibodies (Chemicon, 1:100), anti-NeuN antibodies (Chemicon, 1:200) or anti-CNPase antibodies (Sigma, 1:100). The primary antibody was stained with Alexa 488 or Alexa 546 (Molecular Probes)-labeled secondary antibody. The stained cells or sections were mounted using SlowFade (Molecular probes), and then observed under a confocal laser fluorescence microscope (Fluoview, Olympus).
Furthermore, to confirm the involvement of cell death induced by misfolded proteins in cell death resulting from overexpression of Pael receptors, intracellular distribution of Pael receptors in the presence or the absence of lactacystin was examined. […] Expression plasmids for Pael receptors were gene-transferred to SH-SY5Y cells, and then the cells were cultured in the presence (middle and lower panels) or the absence (upper panel) of lactacystin for 6 hours. […]

Data set [4] concerns Pael receptor. Nature of the data set: Pulse-chase experiment, turnover of 35S-labeled Pael receptor. As to conditions: 10 μM lactacystin, relative to level at time 0. In kind it is cell-based, human. The method, then: Pael receptors having FLAG-tagged carboxyl termini (Pael receptor-FLAG) and expression plasmids for Parkin or control plasmids were gene-transferred to SH-SY5Y cells. 36 hours later, the cells were cultured for 1 hour in Dulbecco's modified eagle's medium (M/C-free DMEM) containing 5% fetal calf serum (FCS) but containing no methionine/cysteine under conditions involving the presence or the absence of 10 μM lactacystin. The cells were then labeled at 37° C. for 30 minutes by adding 200 μCi/ml ^35S-methionine/cysteine to the 5% FCS-containing M/C-free DMEM in the presence or the absence of 10 μM lactacystin. […] The metabolically labeled Pael receptor was quantified using Image Gauge software (Fujifilm). Next, to examine whether Parkin degrades the Pael receptor in the ubiquitin-proteasome system, the turnover rate of the Pael receptor was measured under conditions involving the presence or the absence of Parkin by the pulse-chase experiment (FIG. 9). […] Subsequently, ^35S-methionine/cysteine were added for labeling, and then the cells were chased for the time indicated in FIG. 9 in the presence (Lc +) or the absence (Lc −) of 10 μM lactacystin. ^35S-labeld Pael receptors were immunoprecipitated, detected by radioautography (FIG. 9 left), and then quantified by phosphor imaging (FIG. 9 right). […]

[5] abbreviates: Pael receptor-over-expressing SH-SY5Y cells, 16 hours, lactacystin 20 μM, tunicamycin 5 μg/ml, 2-ME 2 mM.
The mark [6] stands for this setting: control SH-SY5Y cells, 16 hours, tunicamycin 5 μg/ml, 2-ME 2 mM.

On to `OCCS` [2-ME, 2-mercaptoethanol], for which, in data set [1], the “Pael receptors in the insoluble fraction” value was “increased with a high-molecular-weight shift”. Besides, the “expression of BiP (GRP78) and of endogenous Parkin in the soluble fraction” value (from here on “expression of BiP … in the soluble fraction”) in data set [1] is given as “caused increases”. Moreover, the cells died result is “approximately 60%” in data set [2] (setting [5]) and 40% in data set [2] (setting [6]). Also, in data set [3], the “intracellular distribution of Pael receptors” value (from here on “intracellular distribution”) is recorded as “the same”.
As to `CC(=O)N[C@@H](CSC(=O)[C@]1([C@@H](O)C(C)C)NC(=O)[C@H](C)[C@@H]1O)C(=O)O` [lactacystin], the “Pael receptors remained after 180 minutes of chasing” value in data set [4] (SH-SY5Y cells over-expressing Parkin) was found to be 58%. In data set [4] (control SH-SY5Y cells), the “Pael receptors remained after 180 minutes of chasing” value was found to be 54%. For the same compound, in data set [1], the “Pael receptors in the insoluble fraction” value was “increased with a high-molecular-weight shift”; the “expression of BiP … in the soluble fraction” value is “caused increases”. For the same compound, the cells died entry in data set [2] (human, 16 h, 20 μM) is listed as “approximately 50%”. Besides, in data set [3], the “intracellular distribution” value is recorded as “accumulated in the endoplasmic reticulum”.
Consider tunicamycin, for which, in data set [1], the “Pael receptors in the insoluble fraction” value is reported as “increased with a high-molecular-weight shift”; the “expression of BiP … in the soluble fraction” value is “caused increases”. Moreover, in data set [2] (setting [5]), the cells died result is “approximately 60%”. Moreover, the cells died in data set [2] (setting [6]) amounted to 40%. For the same compound, in data set [3], the “intracellular distribution” value is given as “the same”.
